Laboratory results from patent US8309685B2 (Celgene Avilomics Research, Inc., priority 2007, dated 2012).

Legend:
[1] = molecular target: HCV protease mutant A156T (Hepatitis C virus genotype 1b, UniProt Q9WMX2, A1182T); settings: biochemical assays, read-out: Comparative Ki Values, A156T; cited from earlier work
[2] = molecular target: HCV protease mutant D168A (Hepatitis C virus genotype 1b, UniProt Q9WMX2, D1194A); settings: biochemical assays, cited from earlier work; for IC50: literature, read-out: Comparative IC50 Values, D168A; for Ki: read-out: Comparative Ki Values, D168A
[3] = tested on: HCV RNA replicon in cell line ET (luc-ubi-neo/ET), human Huh7 hepatoma; experiment: Method A: HCV RNA replicon antiviral assay (luciferase, ET cell line); assay type: cell-based, Hepatitis C virus; settings: Hepatitis C virus, Huh-7, assay described in Example 22; for IC50: read-out: Replicon (IC50)
In short: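 Six 3-fold dilutions of each drug were tested on subconfluent luc-ubi-neo/ET Huh7 replicon cells (5×10^3/well) for 72 hr at 37 °C. EC50 and EC90 came from luciferase read-out, IC50 from CytoTox-1 cell number, and […]; interferon alpha-2b was run each time as control.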

[4] = molecular target: T1, D168A mutant of the HCV NS3/4A 1b protease enzyme (Hepatitis C virus genotype 1b, UniProt P26663, D1194A); experiment: HCV Protease FRET Assay (IC50_APP), D168A mutant; assay type: biochemical; settings: apparent IC50, D168A mutant; read-out: IC50_APP, HCV D168A
T1 construct: 10× stocks of NS3/4A protease enzyme from Bioenza (Mountain View, Calif.); purchased Bioenza (Mountain View, Calif.)

[5] = molecular target: T2, A156T mutant of the HCV NS3/4A 1b protease enzyme (Hepatitis C virus genotype 1b, UniProt P26663, A1182T); experiment: HCV Protease FRET Assay (IC50_APP), A156T mutant; assay type: biochemical; settings: apparent IC50, A156T mutant; read-out: IC50_APP, HCV A156T
T2 construct: 10× stocks of NS3/4A protease enzyme from Bioenza (Mountain View, Calif.); purchased Bioenza (Mountain View, Calif.)

[6] = molecular target: T3, wild type HCV NS3/4A 1b protease enzyme (Hepatitis C virus genotype 1b, UniProt P26663); experiment: HCV Protease FRET Assay (IC50_APP), wild type; assay type: biochemical; settings: read-out: IC50_APP, WT; apparent IC50, wild type NS3/4A 1b
T3 construct: 10× stocks of NS3/4A protease enzyme from Bioenza (Mountain View, Calif.); purchased Bioenza (Mountain View, Calif.)

[7] = molecular target: T4, HCV R155K (NS3/4A 1b protease) (Hepatitis C virus genotype 1b, UniProt P26663, R1181K); experiment: HCV Protease FRET Assay (IC50), R155K mutant; assay type: biochemical; settings: R155K enzyme, read-out: Inhibition, HCV R155K
T4 construct: 10× stocks of NS3/4A protease enzyme from Bioenza (Mountain View, Calif.); purchased Bioenza (Mountain View, Calif.)
Procedure: HCV Protease FRET Assay for Wild Type and Mutated NS3/4A 1b Enzymes (IC50)
The protocol is a modified FRET-based assay (v—02) from In Vitro Resistance Studies of HCV Serine Protease Inhibitors, 2004, JBC, vol. 279, No. 17, pp 17508-17514.
10× stocks of NS3/4A protease enzyme from Bioenza (Mountain View, Calif.) and 1.13× 5-FAM/QXL™ 520 FRET peptide substrate from Anaspec (San Jose, Calif.) were prepared in 50 mM HEPES, pH 7.8, 100 mM NaCl, 5 mM DTT and 20% glycerol. 5 μL of each enzyme were pre-incubated in a Corning (#3573) 384-well, black, non-treated microtiter plate (Corning, N.Y.) for 30 min at 25° C. with a 0.5 μL volume of 50% DMSO and serially diluted compounds prepared in 50% DMSO. Protease reactions were started with the addition of 45 μL of the FRET substrate and monitored for 120 minutes at λex487/λem514 through Quad^4 monochromoters in a Synergy^4 plate reader from BioTek (Winooski, Vt.). At the conclusion of each assay, progress curves from each well were examined for linear reaction kinetics and fit statistics (R^2, absolute sum of squares). Initial velocity (0 minutes to 30+ minutes) from each reaction was determined from the slope of a plot of relative fluorescence units vs time (minutes) and then plotted against inhibitor concentration to estimate IC50 from log[Inhibitor] vs Response, Variable Slope model in GraphPad Prism from GraphPad Software (San Diego, Calif.).
The compound numbers correspond to the compound numbers in Table 3. […] ;

[8] = molecular target: T5, R155K mutant of the HCV NS3/4A 1b protease enzyme (Hepatitis C virus genotype 1b, UniProt P26663, R1181K); experiment: HCV Protease FRET Assay (IC50_APP), R155K mutant; assay type: biochemical; settings: apparent IC50, R155K mutant; read-out: IC50_APP, HCV R155K
T5 construct: 10× stocks of NS3/4A protease enzyme from Bioenza (Mountain View, Calif.); purchased Bioenza (Mountain View, Calif.)

[9] = molecular target: T6, NS3 protease self-cleavage in Huh-7-Luc-Neo-ET wild-type replicon cells (Hepatitis C virus genotype 1b, UniProt Q9WMX2, E1202G/T1280I); experiment: Inhibition of protease self cleavage after compound removal, wild-type replicon cells; assay type: cell-based; settings: 16 hours incubation, in as little as 4 hours after removal
T6 construct: host or cells: Huh-7-Luc-Neo-ET (human Huh7 hepatoma cells carrying the replicon)
Procedure: Inhibition of Protease Self Cleavage
Huh-7-Luc-Neo-ET cells were plated in Replicon Assay Medium (RPMI supplemented with 5% FBS, 1× non-essential amino acids and pen/strep) at a density of 1×10^5 cells/well in 12 well plates. Eight hours later the media was removed and replaced with 1 ml media containing test compound (5 wells per compound) and 0.02% DMSO and the cells were returned to the incubator overnight. Sixteen hours later 1 well from each compound and 1 untreated well were washed with PBS, then lysed and scraped into 30 ul of Cell Extraction Buffer (Biosource, Camarillo, Calif.) plus Complete Protease Inhibitor (Roche, Indianapolis, Ind.). The remaining wells were rinsed 2× with PBS then fed with Replicon Media and returned to the incubator. […]
Cell lysates were separated by SDS-Page (4-20%) and transferred to Immobilon-P PVDF membrane (Millipore Corporation, Mass.) and blotted with polyclonal anti NS3 antibody (Bioenza, Calif.). Blots were scanned on an Odyssey infrared scanner from Licor and the FL band and cleavage products were quantified separately using the Licor software provided with the scanner. The cleavage product was calculated as a percentage of the total NS3 in each sample and then normalized to the DMSO control so that the DMSO control reflects 100% activity.

| SMILES | Ki [1] [nM] | IC50 [2] [nM] | Ki [2] [nM] | IC90 [3] [nM] | IC50 [3] [nM] | IC50 [4] [nM] | IC50 [5] [nM] | IC50 [6] [nM] | IC50 [7] [nM] | IC50 [8] [nM] | Return of NS3 self-cleavage activity after drug removal [9] |
| --- | --- | --- | --- | --- | --- | --- | --- | --- | --- | --- | --- |
| COc1ccc2c(O[C@@H]3C[C@H]4C(=O)N[C@]5(C(=O)O)C[C@H]5/C=C\CCCCC[C@H](NC(=O)OC5CCCC5)C(=O)N4C3)cc(-c3csc(NC(C)C)n3)nc2c1 [BILN 2061] | > 1200 | 1860 | > 1200 | – | – | – | – | – | – | – | – |
| C=CC(=O)NC[C@H](NC(=O)OC(C)(C)C)C(=O)N1C[C@H](Oc2nccc3ccc(Br)cc23)C[C@H]1C(=O)N[C@]1(C(=O)NS(=O)(=O)C2CC2)C[C@H]1C=C [Compound I-73, tert-butyl-(S)-3-acrylamido-1-((2S,4R)-4-(7-bromoisoquinolin-1-yloxy)-2-((1R,2S)-1-(cyclopropylsulfonylcarbamoyl)-2-vinylcyclopropylcarbamoyl)pyrrolidin-1-yl)-1-oxopropan-2-ylcarbamate] | – | – | – | 100 to 1000 | 10 to 100 | 100 to 1000 | 10 to 100 | < 10 | < 10 | 10 to 100 | – |
| C=CC(=O)N[C@H](C)C(=O)N1C[C@H](Oc2nccc3ccc(Br)cc23)C[C@H]1C(=O)N[C@]1(C(=O)NS(=O)(=O)C2CC2)C[C@H]1C=C [Compound I-74, (2S,4R)-1-((R)-2-acrylamidopropanoyl)-4-(7-bromoisoquinolin-1-yloxy)-N-((1R,2S)-1-(cyclopropylsulfonylcarbamoyl)-2-vinylcyclopropyl)pyrrolidine-2-carboxamide] | – | – | – | 10 to 100 | 10 to 100 | 100 to 1000 | 10 to 100 | < 10 | < 10 | 10 to 100 | – |
| C=C[C@@H]1C[C@]1(NC(=O)[C@@H]1C[C@@H](Oc2nccc3ccc(Br)cc23)CN1C(=O)[C@H](CCC(=O)C=C(C)C)NC(=O)OC(C)(C)C)C(=O)NS(=O)(=O)C1CC1 [Compound I-75, tert-butyl-(S)-1-((2S,4R)-4-(7-bromoisoquinolin-1-yloxy)-2-((1R,2S)-1-(cyclopropylsulfonylcarbamoyl)-2-vinylcyclopropylcarbamoyl)pyrrolidin-1-yl)-7-methyl-1,5-dioxooct-6-en-2-ylcarbamate] | – | – | – | 10 to 100 | < 10 | 1000 to 10000 | 100 to 1000 | < 10 | 10 to 100 | 100 to 1000 | – |
| CCC[C@H](NC(=O)[C@@H]1[C@H]2CCC[C@H]2CN1C(=O)[C@@H](NC(=O)[C@@H](NC(=O)c1cnccn1)C1CCCCC1)C(C)(C)C)C(=O)C(=O)NC1CC1 [VX-950] | 9900 | 193 | 150 | – | – | – | – | – | – | – | virtually complete return of activity |
